Measurements as given in article PMC11073428, “The activity of pyrazolo[4,3-e][1,2,4]triazine and pyrazolo[4,3-e]tetrazolo[1,5-b][1,2,4]triazine sulphonamide derivatives in monolayer and spheroid breast cancer cell cultures” (Journal of Enzyme Inhibition and Medicinal Chemistry, 2024).

What was measured:
[1] = system: MDA-MB-231 breast cancer cells; experiment: Apoptosis, annexin V-FITC/PI flow cytometry, MDA-MB-231; type: cell-based, human; conditions: 24 h
Procedure: The analysis was performed using flow cytometry Apoptosis Detection Kit II (BD Biosciences, San Diego, CA) as described previously.

ROS in MDA-MB-231 cells = experiment: Total ROS activity, flow cytometry, MDA-MB-231; type: cell-based, human; conditions: for cells with ROS: 24 h
Procedure: In brief, cells were washed two times with cold PBS solution and incubated in a solution of ROS Green dye in Assay Buffer and incubated for 1 h in optimal cell growth parameters, protected from light. After incubation, cells were washed with assay buffer. Subsequently, fluorescence emission intensities at 490 nm excitation and 520 nm emission were recorded in 500 μL assay buffer using flow cytometer BD FACSCanto II flow cytometer and FACSDiva software (BD Biosciences Systems, San Jose, CA).

Bax in MDA-MB-231 cells = experiment: Anti-Bax antibody flow cytometry, MDA-MB-231; type: cell-based, human; conditions: 24 h
Procedure: To evaluate the molecular mechanism of induction of apoptosis of tested compounds, the level of p53, NF-κB, mTOR, Bax, and beclin-1 was measured using appropriate antibody according to the manufacturer’s instruction. In brief, tryspinised cells were centrifuged, then supernatant was discarded, and cells were suspended in 4% FA (formaldehyde). Prepared samples were incubated 15 min at RT. Following incubation, the 2.5 mL PBS was added to each sample and centrifuged. Then, supernatant was discarded, and cells were resuspended in 90% ice-cold methanol to perform permeabilisation and left for 1 h in ice. To remove methanol, cells were rinsed with excess PBS by centrifugation. Following centrifugation, the supernatant was discarded. Then, cells were resuspended in 100 µL of appropriate diluted (1:100 in PBS) antibody conjugate (p53 (7F5) Rabbit mAb – Alexa Fluor 488 Conjugate #5429 Cell Signalling Technology, Danvers, MA; NF-κB p65 (D14E12) XP Rabbit mAb – Alexa Fluor 647 Conjugate #8801 Cell Signalling Technology, Danvers, MA; mTOR (7C10) Rabbit mAB – Alexa Fluor 647 #5048 Cell Signalling Technology, Danvers, MA; FITC Anti-Bax antibody (T22-A) #ab139543, Abcam, Cambridge, UK) and incubated 1 h in the dark at RT. Afterwards, cells were washed by centrifugation in 2 mL of incubation buffer. Finally, supernatant was removed and 300 µL PBS was added to each sample and pipetted. The analysis was performed by flow cytometry (BD FACSCanto II, Becton Dickinson Biosciences Systems, San Jose, CA) using FACSDiva software ver. 6.1.3.

[2] = system: caspase 10 in MCF-7 cells; experiment: Activity of caspase 10, MCF-7; type: cell-based, human; conditions: 24 h
Procedure: (§1) MCF-7 and MDA-MB-231 cells were plated in six-well plates at density 1 × 10^6 and cultured in DMEM for 24 h. […] Then to identify the involvement of caspase family in inducing apoptosis, cells were pre-treated with Z-VAD-FMK (100 µM) 2 h before adding compounds[28]. The activation of caspases 9, 10, and 3/7 was detected as described before.

[3] = system: caspase 10 in MDA-MB-231 cells; experiment: Activity of caspase 10, MDA-MB-231; type: cell-based, human; conditions: 24 h
Procedure: as §1

[4] = system: caspase 3/7 in MCF-7 cells; experiment: Activity of caspase 3/7, MCF-7; type: cell-based, human; conditions: MCF-7, 24 h; cell line does not express caspase 3
Procedure: as §1

beclin-1 in MCF-7 cells = experiment: Anti-beclin-1 antibody flow cytometry, MCF-7; type: cell-based, human; conditions: MCF-7, 0.5 µM, 24 h
Procedure: The fixation and permeabilisation were performed as described above. Cells were resuspended in 100 µL of diluted primary antibody (1:100 in PBS, anti-beclin 1 antibody (2A4) #ab114071, Abcam, Cambridge, UK) and incubated 30 min in the dark at RT. The cells were washed three times by centrifugation in PBS. Then to each probe, 100 µL of diluted fluorochrome-labelled secondary antibody (1:100 in PBS; goat anti-mouse IgG H&L – Alexa Fluor 488 #ab150113, Abcam, Cambridge, UK) was added and incubated 30 min in dark at RT. Then, cells were rinsed with 2.5 mL PBS. In the last step, supernatant was discarded and cells were resuspended in 300 µL PBS and pipetted. The analysis was carried out by flow cytometry.

MCF-7 spheroids = experiment: 3D spheroid culture, MCF-7; type: cell-based, human
Procedure: (§2) The 3D cell culture was carried out with 6-Well Bio-Assembler Kit in accordance with the manufacturer’s instructions (Greiner Bio-One GmbH, Frickenhausen, Germany). First, MCF-7 and MDA-MB-231 were cultured in 2D using procedure and supplied to 80% confluency and treated with nanoshuttle at concentration of 1 µL/10 000 cell and incubated overnight. Following incubation, the medium was removed, and the cells were detached by trypsin–EDTA solution and resuspended in DMEM. The cells were counted using Scepter 2.0 Handheld Automated Cell Counter (Merck, Darmstadt, Germany) and plated at the concentration 1 × 10^6 cells per well in six-well plate. Then, cells were gently tilted in the flask to evenly distribute the nanoparticle and incubated (37 °C, 5% CO2, 95–98% humidity) for 1 h with magnet on the top of the plate. The cells self-assemble to spheroids. The obtained 3D cell culture was incubated until analysis.
(§3) The visualisation of the morphological changes in 3D cell culture of MCF-7 and MDA-MB-231 was evaluated using microscope (Nikon Eclipse Ti, Tokyo, Japan).
(§4) The mean ± standard deviation (SD) for all data is presented. One-way and two-way analysis of variance (ANOVA) was conducted followed by Dunnett’s test. GraphPad 8.0.1 Prism software (GraphPad Software, San Diego, CA) was used for calculation. The analysis of spheroids area was carried out using ImageJ software from the NIH (Bethesda, MD).

MDA-MB-231 spheroids = experiment: 3D spheroid culture, MDA-MB-231; type: cell-based, human; conditions: 0.25 µM and 0.5 µM
Procedure: as §2, §3, §4

in vitro = conditions: human

Cc1nn(-c2ccc(S(=O)(=O)N[C@@H](CO)Cc3ccccc3)cc2)c2nn3nnnc3nc12 [Compound 3b, (R)-N-(1-hydroxy-3-phenylpropan-2-yl)-4-(7-methyl-5H-pyrazolo[4,3-e]tetrazolo[1,5-b][1,2,4]triazin-6-yl)benzenesulfonamide]
apoptotic cells ([1]; MDA-MB-231, 0.25 µM): 11.8 ± 1.3% | early and late apoptotic cells ([1]; MDA-MB-231, 0.5 µM): 29.5 ± 0.9% | cells with ROS (ROS in MDA-MB-231 cells; MDA-MB-231, 0.25 µM): 7.0 ± 0.6% | increase of ROS level compared to control (ROS in MDA-MB-231 cells; MDA-MB-231, 0.5 µM): four | cells with ROS (ROS in MDA-MB-231 cells; MDA-MB-231, 0.5 µM): 9.4 ± 0.7% | cells with active Bax (Bax in MDA-MB-231 cells; MDA-MB-231, 0.25 µM): 6.3 ± 0.4% | cells with active Bax (Bax in MDA-MB-231 cells; MDA-MB-231, higher concentration (0.5 µM)): 16.9 ± 3.7% | cells with active caspase 10 ([2]; MCF-7, 0.25 µM): 12.9 ± 0.8% | cells with active caspase 10 ([2]; MCF-7, 0.5 µM): 70.8 ± 1.1% | cells with active caspase 10 ([3]; MDA-MB-231, 0.25 µM): 21.2 ± 1.4% | cells with active caspase 10 ([3]; MDA-MB-231, 0.5 µM): 50.8 ± 3.8% | effect on executive caspase 7 (in words) [4]: increase in activity of executive caspase 7 | cells with active beclin-1 (beclin-1 in MCF-7 cells): 13.9 ± 2.6% | effect on spheroid formation (in words) (MCF-7 spheroids; 0.25 µM and 0.5 µM): slower formation of spheroids compared to untreated cells | spheroids smaller compared to the control (MCF-7 spheroids; 0.5 µM, 24 h): approximately 86.37 ± 7.7% | effect on spheroid formation (in words) (MDA-MB-231 spheroids): slower formation of spheroids compared to untreated cells | IC50 at 24 h (in vitro): 2300 ± 40 nM
